These results are taken from patent US20110166121A1 (LG LIFE SCIENCES LTD., priority 2008, published 2011).

Assay [1] relates to Human platelet aggregation caused by ADP. As to the kind of experiment: Inhibition of ADP-induced platelet aggregation (Mimic-human PRP). In kind it is cell-based. The following applies: 20 μM ADP, human platelet concentrate diluted with PPP, absorption at 595 nm. The method, boiled down:
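Human PRP diluted with PPP to 3–4×10^8 platelets/mL was preincubated 20 min at room temperature with compound (0.01–30 μM, DMSO), then stimulated with 20 μM ADP. Aggregation read as A595 increase at 3 min versus 0 and 20 μM ADP controls; Ki from sigmoidal non-linear regression.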

The target in a further assay is T1, Human P2Y12 receptor (Homo sapiens, UniProt Q9H244).
T1 construct: expressed in transfected cells; host or cells: HEK cells
Kind of assay: Human P2Y12 receptor cell membrane binding assay with [3H] 2-Mes-ADP. The settings on record: 1 nM [3H] 2-Mes-ADP, membranes of HEK cells expressing P2Y12 receptor; read-out: Binding activity (IC50). The method, boiled down: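 Membranes from HEK cells expressing human P2Y12 were incubated with compound and 1 nM [3H]2-MeS-ADP for 1 h at room temperature. Bound radioactivity was collected by GF/B filtration.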

pIC50, pKi: −log10 of the molar value. Some results are limits rather than exact numbers.

T1 sequence (Q9H244 whole entry): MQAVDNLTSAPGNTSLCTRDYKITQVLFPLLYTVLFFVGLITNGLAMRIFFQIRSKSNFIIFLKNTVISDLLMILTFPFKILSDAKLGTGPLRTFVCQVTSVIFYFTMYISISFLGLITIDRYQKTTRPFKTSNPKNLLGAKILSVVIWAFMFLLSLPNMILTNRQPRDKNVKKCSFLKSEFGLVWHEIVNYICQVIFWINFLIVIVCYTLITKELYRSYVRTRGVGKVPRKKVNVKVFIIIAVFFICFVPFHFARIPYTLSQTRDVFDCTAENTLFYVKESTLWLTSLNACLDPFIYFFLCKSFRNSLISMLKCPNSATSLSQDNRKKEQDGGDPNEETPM

A word on the pKi: it is the Ki on a negative log10 scale, so that one unit is a factor of ten. A higher pKi goes with a low Ki. The term pIC50 denotes −log10 of the IC50, conventionally taken in molar units. As for `CCCc1cc2c(N3CCn4c(nnc4C(F)(F)F)C3)nc(N(CCO)CCO)nc2s1` [Example 1-34, 2-{(2-Hydroxy-ethyl)-[6-propyl-4-(3-trifluoromethyl-5,6-dihydro-8H-[1,2,4]triazolo[4,3-a]pyrazin-7-yl)-thieno[2,3-d]pyrimidin-2-yl]-amino}-ethanol], the pKi in assay [1] was 7.09. For the same molecule, the pIC50 on Human P2Y12 receptor is 6.84.
For `CCCc1cc2c(N3CCn4c(nnc4C(F)(F)F)C3)nc(N3CCOC(=O)C3)nc2s1` [Example 1-35, 4-[6-Propyl-4-(3-trifluoromethyl-5,6-dihydro-8H-[1,2,4]triazolo[4,3-a]pyrazin-7-yl)-thieno[2,3-d]pyrimidin-2-yl]-morpholin-2-one] the same measures were 7.27 and 6.87.
As to `CCCc1cc2c(N3CCn4c(nnc4C(F)(F)F)C3)nc(Nc3ccccc3)nc2s1` [Example 1-36, Phenyl-[6-propyl-4-(3-trifluoromethyl-5,6-dihydro-8H-[1,2,4]triazolo[4,3-a]pyrazin-7-yl)-thieno[2,3-d]pyrimidin-2-yl]-amine], the pKi in assay [1] is 5.92. The pIC50 on Human P2Y12 receptor was 6.77.
`CCCc1cc2c(N3CCn4c(nnc4C(F)(F)F)C3)nc(Nc3ncccn3)nc2s1` [Example 1-37, [6-Propyl-4-(3-trifluoromethyl-5,6-dihydro-8H-[1,2,4]triazolo[4,3-a]pyrazin-7-yl)-thieno[2,3-d]pyrimidin-2-yl]-pyrimidin-2-yl-amine]: the pKi in assay [1] was 6.07. Moreover, the pIC50 on Human P2Y12 receptor was 6.26.
As to `CCCc1cc2c(N3CCn4c(nnc4C(F)(F)F)C3)nc(N3CCN(c4ccc(O)cc4)CC3)nc2s1` [Example 1-38, 4-{4-[6-Propyl-4-(3-trifluoromethyl-5,6-dihydro-8H-[1,2,4]triazolo[4,3-a]pyrazin-7-yl)-thieno[2,3-d]pyrimidin-2-yl]-piperazin-1-yl}-phenol], in assay [1], the pKi was 6.74. Further, at Human P2Y12 receptor, the pIC50 is 7.00.
Turning to `CCCc1cc2c(N3CCn4c(nnc4C(F)(F)F)C3)nc(N3CCN(c4cccc(O)c4)CC3)nc2s1` [Example 1-39, 3-{4-[6-Propyl-4-(3-trifluoromethyl-5,6-dihydro-8H-[1,2,4]triazolo[4,3-a]pyrazin-7-yl)-thieno[2,3-d]pyrimidin-2-yl]-piperazin-1-yl}-phenol], in assay [1], the pKi was 6.26. For the same molecule, the pIC50 on Human P2Y12 receptor is 6.85.
In the case of `CCCc1cc2c(N3CCn4c(nnc4C(F)(F)F)C3)nc(N3CCN(C4CCCC4)CC3)nc2s1` [Example 1-40, 7-[2-(4-Cyclopentyl-piperazin-1-yl)-6-propyl-thieno[2,3-d]pyrimidin-4-yl]-3-trifluoromethyl-5,6,7,8-tetrahydro-[1,2,4]triazolo[4,3-a]pyrazine], the pKi in assay [1] is 6.76. Besides, at Human P2Y12 receptor, the pIC50 is 6.70.
Turning to `CCCc1cc2c(N3CCn4c(nnc4C(F)(F)F)C3)nc(N3CCN(CC4CCCC4)CC3)nc2s1` [Example 1-41, 7-[2-(4-Cyclopentylmethyl-piperazin-1-yl)-6-propyl-thieno[2,3-d]pyrimidin-4-yl]-3-trifluoromethyl-5,6,7,8-tetrahydro-[1,2,4]triazolo[4,3-a]pyrazine], the pKi in assay [1] is 5.80. For the same molecule, the pIC50 at Human P2Y12 receptor is 6.27.
For `CCCc1cc2c(N3CCn4c(nnc4C(F)(F)F)C3)nc(N3CCN(CC4CCCCC4)CC3)nc2s1` [Example 1-42, 7-[2-(4-Cyclohexylmethyl-piperazin-1-yl)-6-propyl-thieno[2,3-d]pyrimidin-4-yl]-3-trifluoromethyl-5,6,7,8-tetrahydro-[1,2,4]triazolo[4,3-a]pyrazine] the same measures were 5.14 and 5.93.
Turning to `CCCc1cc2c(N3CCn4c(nnc4C(F)(F)F)C3)nc(NCCC(=O)OCC)nc2s1` [Example 1-43, 3-[6-Propyl-4-(3-trifluoromethyl-5,6-dihydro-8H-[1,2,4]triazolo[4,3-a]pyrazin-7-yl)-thieno[2,3-d]pyrimidin-2-ylamino]-propionic acid ethyl ester], the pKi in assay [1] is 6.17. The negative logarithm of the IC50 (pIC50) at Human P2Y12 receptor was 6.87.
In assay [1], `CCCc1cc2c(N3CCn4c(nnc4C(F)(F)F)C3)nc(NCCC(=O)O)nc2s1` [Example 1-44, 3-[6-Propyl-4-(3-trifluoromethyl-5,6-dihydro-8H-[1,2,4]triazolo[4,3-a]pyrazin-7-yl)-thieno[2,3-d]pyrimidin-2-ylamino]-propionic acid] showed a pKi of 6.59. Besides, at Human P2Y12 receptor, the negative-log IC50 (pIC50) was 7.23.
The like results for `CCCc1cc2c(N3CCn4c(nnc4C(F)(F)F)C3)nc(N3CCCC(C(=O)OCC)C3)nc2s1` (stereo not shown) [Example 1-45, 1-[6-Propyl-4-(3-trifluoromethyl-5,6-dihydro-8H-[1,2,4]triazolo[4,3-a]pyrazin-7-yl)-thieno[2,3-d]pyrimidin-2-yl]-piperidine-3-carboxylic acid ethyl ester] were, in that order, 6.00 and 6.47.
For `CCCc1cc2c(N3CCn4c(nnc4C(F)(F)F)C3)nc(N3CCCC(C(=O)O)C3)nc2s1` (stereo not shown) [Example 1-46, 1-[6-Propyl-4-(3-trifluoromethyl-5,6-dihydro-8H-[1,2,4]triazolo[4,3-a]pyrazin-7-yl)-thieno[2,3-d]pyrimidin-2-yl]-piperidine-3-carboxylic acid] the same measures were 7.24 and 7.68.
The like results for `CCCc1cc2c(N3CCn4c(nnc4C(F)(F)F)C3)nc(N3CCCC(C(=O)OC(C)C)C3)nc2s1` (stereo not shown) [Example 1-47, 1-[6-Propyl-4-(3-trifluoromethyl-5,6-dihydro-8H-[1,2,4]triazolo[4,3-a]pyrazin-7-yl)-thieno[2,3-d]pyrimidin-2-yl]-piperidine-3-carboxylic acid isopropyl ester] were, in that order, 5.72 and 6.55.
Molecule `CCCc1cc2c(N3CCn4c(nnc4C(F)(F)F)C3)nc(N3CCCC(C(=O)OCOC(=O)C(C)(C)C)C3)nc2s1` (stereo not shown) [Example 1-48, 1-[6-Propyl-4-(3-trifluoromethyl-5,6-dihydro-8H-[1,2,4]triazolo[4,3-a]pyrazin-7-yl)-thieno[2,3-d]pyrimidin-2-yl]-piperidine-3-carboxylic acid 2,2-dimethyl-propionyloxymethyl ester] had a pKi in assay [1] of 5.89. Also, the pIC50 at Human P2Y12 receptor was 6.40.
For `CCCc1cc2c(N3CCn4c(nnc4C(F)(F)F)C3)nc(N3CCC[C@H]3C(=O)OC)nc2s1` [Example 1-49, (S)-1-[6-Propyl-4-(3-trifluoromethyl-5,6-dihydro-8H-[1,2,4]triazolo[4,3-a]pyrazin-7-yl)-thieno[2,3-d]pyrimidin-2-yl]-pyrrolidine-2-carboxylic acid methyl ester] the same measures were 6.64 and 7.01.
For `CCCc1cc2c(N3CCn4c(nnc4C(F)(F)F)C3)nc(N3CCC[C@H]3C(=O)O)nc2s1` [Example 1-50, (S)-1-[6-Propyl-4-(3-trifluoromethyl-5,6-dihydro-8H-[1,2,4]triazolo[4,3-a]pyrazin-7-yl)-thieno[2,3-d]pyrimidin-2-yl]-pyrrolidine-2-carboxylic acid] the same measures were 7.40 and 6.96.
For `CCCc1cc2c(N3CCn4c(nnc4C(F)(F)F)C3)nc(N3CCC[C@H]3C(=O)OC(C)C)nc2s1` [Example 1-51, (S)-1-[6-Propyl-4-(3-trifluoromethyl-5,6-dihydro-8H-[1,2,4]triazolo[4,3-a]pyrazin-7-yl)-thieno[2,3-d]pyrimidin-2-yl]-pyrrolidine-2-carboxylic acid isopropyl ester] the same measures were 6.10 and 6.66.
Turning to `CCCc1cc2c(N3CCn4c(nnc4C(F)(F)F)C3)nc(N3CCC[C@H]3C(=O)OCOC(=O)C(C)(C)C)nc2s1` [Example 1-52, (S)-1-[6-Propyl-4-(3-trifluoromethyl-5,6-dihydro-8H-[1,2,4]triazolo[4,3-a]pyrazin-7-yl)-thieno[2,3-d]pyrimidin-2-yl]-pyrrolidine-2-carboxylic acid 2,2-dimethyl-propionyloxymethyl ester], the pKi in assay [1] was below 5.40. Further, the pIC50 on Human P2Y12 receptor was 5.99.
The like results for `CCCc1cc2c(N3CCn4c(nnc4C(F)(F)F)C3)nc(N3CCC[C@@H]3C(=O)O)nc2s1` [Example 1-54, (R)-1-[6-Propyl-4-(3-trifluoromethyl-5,6-dihydro-8H-[1,2,4]triazolo[4,3-a]pyrazin-7-yl)-thieno[2,3-d]pyrimidin-2-yl]-pyrrolidine-2-carboxylic acid] were, in that order, 6.89 and 6.84.
In assay [1], `CCCc1cc2c(N3CCn4c(nnc4C(F)(F)F)C3)nc(N3CCC(C#N)C3)nc2s1` (stereo not shown) [Example 1-55, 1-[6-Propyl-4-(3-trifluoromethyl-5,6-dihydro-8H-[1,2,4]triazolo[4,3-a]pyrazin-7-yl)-thieno[2,3-d]pyrimidin-2-yl]-pyrrolidine-3-carbonitrile] gave a pKi of 7.57. Further, on Human P2Y12 receptor, the pIC50 is 7.22.
The like results for `CCCc1cc2c(N3CCn4c(nnc4C(F)(F)F)C3)nc(N3CC[C@H](C(=O)O)C3)nc2s1` [Example 1-57, (S)-1-[6-Propyl-4-(3-trifluoromethyl-5,6-dihydro-8H-[1,2,4]triazolo[4,3-a]pyrazin-7-yl)-thieno[2,3-d]pyrimidin-2-yl]-pyrrolidine-3-carboxylic acid] were, in that order, 7.27 and 7.82.
For `CCCc1cc2c(N3CCn4c(nnc4C(F)(F)F)C3)nc(N3CC[C@H](C(=O)OC(C)C)C3)nc2s1` [Example 1-58, (S)-1-[6-Propyl-4-(3-trifluoromethyl-5,6-dihydro-8H-[1,2,4]triazolo[4,3-a]pyrazin-7-yl)-thieno[2,3-d]pyrimidin-2-yl]-pyrrolidine-3-carboxylic acid isopropyl ester] the same measures were 6.15 and 6.72.
